{"source": "patent US20260096569A1", "about": "“EDIBLE COATING WITH ANTIMICROBIAL PROPERTIES” (priority 2021, published 2026)", "key": {"[1]": {"test_system": "stem end rot", "test": "Avocado storage: incidence and severity of stem end rot, salicylic acid", "format": "in vivo", "conditions": "Mexican avocados size 60, 0.6 g/L salicylic acid, two days", "text": "(§1) Avocados were Mexican avocados size 60. […] Avocados were monitored for two days for CO2 production (respiration) rate, mass loss, incidence of stem end rot, and severity of stem end rot disease. […] This could be due to changes in the barrier stability or barrier properties when salicylic acid is combined with the mixture of glycerol monostearate and sodium stearate. When comparing the mass loss factor using the salicylic acid+the mixture of glycerol monostearate and sodium stearate to the mixture itself, there was a 0.35× improvement. Severity of stem end rot disease was measured on a 1-4 stem end rot severity scale (STR)."}, "[2]": {"test_system": "Colletotrichum", "test": "Salicylic acid and chitosan combinations on stem end rot of infected Mexican avocados", "format": "in vivo", "conditions": "infected Mexican avocados size 84, 0.2%, compared with the other treatments", "protocol": "To determine the impact of salicylic acid and chitosan combinations on stem end rot (Colletotrichum), Mexican avocados size 84 were infected with 103 Colletotrichum spores and treated with 0.01% of an imidazole antifungal agent, such as Prochloraz, 0.1% low molecular weight chitosan (1 g/L), 0.2% salicylic acid, or 0.2% salicylic acid+0.1% chitosan. Uninfected and infected controls were not exposed to treatments. Following treatment, the percent disease index of stem end rot was determined for each avocado."}, "[3]": {"test": "Avocado storage, five days: CO2 production (respiration), salicylic acid and mixture", "format": "in vivo", "conditions": "Mexican avocados size 60, 0.6 g/L or 2.0 g/L salicylic acid", "text": "(§2) To determine the impact of salicylic acid and a mixture of 94% glycerol monostearate and a 6% fatty acid salt combinatorial treatment on avocado, Mexican avocados size 60 were exposed to 0.6 g/L salicylic acid, 2.0 g/L salicylic acid, 30 g/L a mixture of glycerol monostearate and sodium stearate, or 0.6 g/L salicylic acid+30 g/L a mixture of glycerol monostearate and sodium stearate treatments. To treat, avocados were removed form cold storage and left at room temperature for four hours. Avocados were then dipped in treatments as indicated and dried in a drying tunnel. Uninfected controls were not exposed to treatments. Avocados were monitored for five days for CO2 production (respiration) rate, mass loss, incidence of stem end rot, and severity of stem end rot disease on a 1-4 stem end rot severity scale (STR). The experiment was concluded when untreated avocados reached a ripeness of <35 shore. […] This may be due to changes in barrier stability or properties."}, "[4]": {"test_system": "Colletotrichum", "test": "Salicylic acid and pH on stem end rot of infected Mexican avocados", "format": "in vivo", "protocol": "To determine the impact of salicylic acid and pH on stem end rot (Colletotrichum), Colletotrichum disease indices of avocados were determined with various treatments. […] Mexican avocados size 84 were infected with 103 Colletotrichum spores and treated with 1M NaOH pH 6, 0.01% of an imidazole antifungal agent, such as Prochloraz, 0.2% salicylic acid pH 2.5, or 0.2% salicylic acid pH 6. pH was adjusted with 1M NaOH. Uninfected and infected controls were not exposed to treatments. Infection rate was near 100% for the water treated control. Treatment of infected avocados with pH 2.5. […] Treatment with salicylic acid at pH 2.5 reduced percent infection by nearly 70%. However, the percent disease index remained at 100% during treatment with salicylic acid at a pH of 6 (FIG. 7)."}, "[5]": {"test": "Avocado storage: CO2 production (respiration) and mass loss, salicylic acid", "format": "in vivo", "conditions": "Mexican avocados size 60 stored about one month, 0.6 g/L, two days", "text": "as §1"}, "[6]": {"test_system": "Colletotrichum", "test": "Salicylic acid, sodium salicylate and chitosan on stem end rot of infected California avocados", "format": "in vivo", "protocol": "To determine the impact of salicylic acid, sodium salicylate, and chitosan on stem end rot (Colletotrichum), California avocados size 96 were infected with 10^3 Colletotrichum spores and treated with 0.01% of an imidazole antifungal agent, such as Prochloraz, 0.05% salicylic acid, 0.1% salicylic acid, 0.2% salicylic acid, 1% sodium salicylate, or 1% chitosan+5 mM C10 monoglyceride. Uninfected and infected controls were not exposed to treatments. Following treatment, the percent disease index of stem end rot was determined for each avocado. […] However, the 1% chitosan+5 mM C10 monoglyceride treatment sample size was 14 avocados."}, "[7]": {"test": "Viscosity and pH of salicylic acid and mixture combinations", "format": "physicochemical", "conditions": "salicylic acid 0.15-1.0 g/L in water", "text": "The viscosity decreased as the mixture concentration increased, and as the salicylic acid concentration increased (FIG. 11A). […] The maximum amount of salicylic acid that could be added was about 2% of the weight of the mixture (FIG. 10)."}, "[8]": {"test_system": "stem end rot", "test": "Avocado storage, five days: incidence and severity of stem end rot", "format": "in vivo", "conditions": "Mexican avocados size 60, five days", "text": "as §2"}, "[9]": {"test_system": "Colletotrichum", "test": "Sequential salicylic acid and mixture treatments on stem end rot of infected Mexican avocados", "format": "in vivo", "protocol": "The pH was adjusted with 1M NaOH. Salicylic acid treatments were performed and dried before subsequent treatments with the mixture of glycerol monostearate and sodium stearate were performed for combinatorial treatments. Controls with salicylic acid treatment and a subsequent treatment with water were also performed. Uninfected controls were not exposed to treatments. Following treatment, the disease index of stem end rot was determined for each avocado. […] Salicylic acid was effective in treatments with salicylic acid first and the mixture of glycerol monostearate and sodium stearate treatment second (FIG. 9)."}, "[10]": {"test_system": "Colletotrichum", "conditions": "cited from earlier work"}, "[11]": {"test_system": "Colletotrichum", "test": "Screening for stem end rot (Colletotrichum) infection control, California avocados", "format": "in vivo", "text": "To screen for infection control of stem end rot (Colletotrichum) with epicatechin, ASM, and MeSA (methyl salicylate), California avocados size 84 were infected with Colletotrichum spores (103 spores/ml) and treated with 0.01% an imidazole antifungal agent, such as Prochloraz, 0.1% epicatechin, 0.01% ASM, or 0.1% MeSA, as indicated. Uninfected and infected controls were not exposed to treatments. […] Disease index is on a scale from 0-1 and takes into account both the percent of fruit infected and the average severity of the infection in the sample group. The average severity is on a scale from 0-4. Percent disease index is calculated as follows: (Percent infected*Average infection severity)/4."}, "[12]": {"test": "Mixture and carvacrol on avocados: respiration and mass loss", "format": "in vivo", "protocol": "(§3) Fifty-four avocados were tested per treatment. Avocados were dipped into treatment liquids and allowed to dry. Respiration (CO2 production), mass loss, disease indices of stem end rot and vascular browning were measured. […] The timing of spoilage was affected by treatments (FIG. 14)."}, "[13]": {"test": "Organic mixture and carvacrol on wounded organic lemons: mass loss and skin damage", "format": "in vivo", "conditions": "carvacrol alone (5 g/L carvacrol+0.25 g/L sodium stearate)", "text": "To determine the impact of an organic mixture of glycerol monostearate and sodium stearate mixed with carvacrol on mass loss and mold incidence in organic lemons, unwaxed California organic lemons sized 140 were exposed to 30 g/L an organic mixture of glycerol monostearate and sodium stearate mixed, 30 g/L an organic mixture of glycerol monostearate and sodium stearate+5 g/L carvacrol, or 5 g/L carvacrol+0.25 g/L sodium stearate, or were untreated. Batches of 140 lemons per condition were used. Lemons were physically wounded with the stem of another lemon, dipped into a treatment or left untreated, and dried in ambient conditions. Mass loss and disease incidence (% of group with mold) were measured. The addition of carvacrol to an organic mixture of glycerol monostearate and sodium stearate mixed with carvacrol increased mass loss factor to 1.7×compared to the organic mixture of glycerol monostearate and sodium stearate mixed with carvacrol alone, which was 1.3× of the untreated group (FIG. 15A). The addition of carvacrol to an organic mixture of glycerol monostearate and sodium stearate mixed with carvacrol reduced the incidence of mold ˜12% from untreated lemons and 22% from an organic mixture of glycerol monostearate and sodium stearate mixed with carvacrol alone treated lemons after 6.5 days of ambient storage (FIG. 15B)."}, "[14]": {"test": "Mixture and carvacrol on organic lemons in cold storage: mass loss and quality", "format": "in vivo", "conditions": "carvacrol alone (10 g/L carvacrol+50 g/L ethanol), dried in ambient conditions", "protocol": "Batches of 120 lemons per condition were used. Lemons were dipped into a treatment or left untreated, dried in ambient conditions, and stored at 8° C., 80% relative humidity for several weeks. Mass loss was measured."}, "[15]": {"test_system": "stem end rot", "test": "Mixture and carvacrol on avocados: incidence of stem end rot", "format": "in vivo", "conditions": "10 g/L carvacrol alone", "protocol": "as §3"}, "[16]": {"test_system": "vascular browning", "test": "Mixture and carvacrol on avocados: incidence of vascular browning", "format": "in vivo", "conditions": "10 g/L carvacrol alone", "protocol": "as §3"}, "[17]": {"test": "Mixture with increasing carvacrol and ethanol on organic lemons: mass loss and quality", "format": "in vivo", "conditions": "heated drying in a drying tunnel", "protocol": "Specifically, 1 g/L carvacrol+5 g/L ethanol, 2 g/L carvacrol+10 g/L ethanol, 3 g/L carvacrol+15 g/L ethanol, 6 g/L carvacrol+30 g/L ethanol, or 8 g/L carvacrol+40 g/L ethanol. Batches of 120 lemons per condition were used. Lemons were dipped into a treatment or left untreated, dried in heated conditions in a drying tunnel, and stored at ambient conditions. Mass loss was measured."}, "[18]": {"conditions": "infected California avocados size 84, treatment 0.01%"}}, "note": "“Also recorded” adds a separate entry of the source. Read-outs that look alike come from different tables or passages of the source.", "data": [{"smiles": "O=C(O)c1ccccc1O", "note": "[salicylic acid]", "values": [{"measurement": "incidence of stem end rot", "setting": "[1]", "value": "not incidence"}, {"measurement": "severity of stem end rot disease (1-4 STR scale)", "setting": "[1]", "value": "reduce the severity"}, {"measurement": "percent disease index of stem end rot", "setting": "[2]", "value": "greatest effect"}, {"measurement": "CO2 production (respiration)", "setting": "[3]", "value": "did not increase CO2 production (respiration) compared to the control"}, {"measurement": "reduction of percent infection", "setting": "[4]; infected Mexican avocados size 84, 0.2% salicylic acid pH 2.5", "value": "~70", "unit": "%"}, {"measurement": "percent disease index", "setting": "[4]; infected Mexican avocados size 84, 0.2% salicylic acid pH 6", "value": 100, "unit": "%"}, {"measurement": "CO2 production (respiration) rate", "setting": "[5]", "value": "increased the respiration compared to the control"}, {"measurement": "percent disease index of stem end rot", "setting": "[6]; infected California avocados size 96, 0.05%", "value": "reduced the stem end rot disease index"}, {"measurement": "percent disease index of stem end rot", "setting": "[6]; infected California avocados size 96, 0.1%", "value": "reduced the stem end rot disease index"}, {"measurement": "percent disease index of stem end rot", "setting": "[6]; infected California avocados size 96, 0.2%", "value": "reduced the stem end rot disease index; also recorded: most effective"}, {"measurement": "pH in water", "setting": "[7]", "value": "2-2.5"}, {"measurement": "incidence of stem end rot", "setting": "[8]", "value": "slight reductions"}, {"measurement": "severity of stem end rot (1-4 STR scale)", "setting": "[8]", "value": "slight reductions"}, {"measurement": "percent disease index of stem end rot versus infected water control", "setting": "[9]; infected Mexican avocados size 84, decreased concentration (0.06%), pH 2.3", "value": "more effective than then infected water control treatment"}, {"measurement": "percent disease index of stem end rot, effect of decreasing concentration", "setting": "[9]; infected Mexican avocados size 84, from 0.2% to 0.06%, pH 2.3", "value": "reduced the effectiveness of the treatment"}, {"measurement": "percent disease index of stem end rot", "setting": "[9]; salicylic acid treatment dried, then a second treatment (mixture or water)", "value": "reduced the percent disease indices"}, {"measurement": "germination", "setting": "[10]; pH 2.5", "value": "inhibits germination"}, {"measurement": "germination", "setting": "[10]; pH raised to pH 6", "value": "loses its inhibitory effect"}]}, {"smiles": "O=C([O-])c1ccccc1O.[Na+]", "note": "[sodium salicylate]", "values": [{"measurement": "percent disease index of stem end rot", "setting": "[6]; infected California avocados size 96, 1%", "value": "did not significantly reduce the disease index"}]}, {"smiles": "CSC(=O)c1cccc2nnsc12", "note": "[ASM, Acibenzolar-S-Methyl]", "values": [{"measurement": "percent disease index for stem end rot", "setting": "[11]; [18]", "value": "significantly smaller disease indices compared to the infected control"}]}, {"smiles": "CCCN(CCOc1c(Cl)cc(Cl)cc1Cl)C(=O)n1ccnc1", "note": "[Prochloraz]", "values": [{"measurement": "percent disease index of stem end rot", "setting": "[6]; infected California avocados size 96, 0.01%", "value": "effective at decreasing the disease index compared to the infected control"}, {"measurement": "percent disease index for stem end rot", "setting": "[11]; [18]", "value": "effective at decreasing the observed disease index"}]}, {"smiles": "Cc1ccc(C(C)C)cc1O", "note": "[carvacrol]", "values": [{"measurement": "respiration (CO2 production)", "setting": "[12]; California avocados sized 96, 10 g/L carvacrol alone", "value": "may have accelerated respiration"}, {"measurement": "mass loss", "setting": "[12]; California avocados sized 96, 10 g/L carvacrol, versus untreated avocados", "value": "negligible effect on mass loss"}, {"measurement": "damage to lemon skin", "setting": "[13]", "value": "damaged the lemon skin"}, {"measurement": "damage to lemon skin", "setting": "[14]", "value": "skin burns; also recorded: damaged the lemon skin"}, {"measurement": "disease incidence of stem end rot", "setting": "[15]", "value": "almost eliminated disease incidence"}, {"measurement": "disease incidence of vascular browning", "setting": "[16]", "value": "almost eliminated disease incidence"}, {"measurement": "carvacrol lemon skin burns", "setting": "[17]", "value": "prevented carvacrol lemon skin burns"}]}, {"smiles": "COC(=O)c1ccccc1O", "note": "[MeSA, methyl salicylate]", "values": [{"measurement": "percent disease index for stem end rot", "setting": "[11]; infected California avocados size 84, treatment 0.1%", "value": "no observed effect"}]}]}
